Reference: US7754202B1, “Methods of controlling cell differentiation and growth using a fusion protein and a drug” (Stanford University, priority 1998, dated 2010)
Several values for one entry are separate records, joined by “and”; a condition that tells them apart may be missing. Identical values can stand only once.

Columns and labels:
[1] = test system: cells; assay: Immunosuppressive activity or other toxicity to cells; format: cell-based; conditions: in experiments to date
[2] = test system: MH cells expressing chimeric receptors; assay: DNA synthesis (BrdU incorporation) in MH cells expressing FKBP chimeric receptors; format: cell-based, monkey (Macaca fascicularis); conditions: serum-starved MH cells, 3 days after AP20187 addition; compared with nonspecific induction by AP20187 alone
Protocol: FIG. 5. DNA synthesis in MH cells expressing FKBP chimeric receptors after stimulation with AP20187. 5×10^4 MH cells were plated per well (24 well plate) in the presence of FCS. 24 hours after retrovirus infection, culture medium was replaced by serum-free medium and cells were starved for 6 days. At this time point AP20187 was added to one set of cells and BrdU incorporation was measured three days after induction. BrdU labeled cells were counted in four independent areas for each sample (N=3) and expressed as the percentage of BrdU (+) cells. The (+) and (−) symbols after the chimeric gene designations indicates the presence and absence of AP20187, respectively. […]
To test the proliferation properties of MH cells, cellular DNA replication based on incorporation of BrdU was analyzed. […] After this, BrdU labeled DNA was detected in cell nuclei by immuno-histochemistry with BrdU-specific antibodies.
Retroviruse vectors expressing the chimeric receptors provided in TABLE 9 were prepared as a means for gene transfer into hepatocytes. […] Next, the percentage of MH cells grown in the presence of FCS and HGF that can be transduced by an amphotropic β-Gal virus after an incubation of 5 hours at an MOI of 1 cfu per cell was determined. […] At this time point AP20187 was added to one set of cells and BrdU incorporation was measured three days after induction. […]

[3] = test system: primary murine bone marrow cells expressing the F36Vmpl fusion protein; assay: Response of marrow cells expressing F36Vmpl (MFM vector) to AP20187; format: cell-based; conditions: compared with FK1012 (data not shown)
Text: A MSCVneo-based retroviral vector encoding a fusion protein identical to F1mpl except for the presence of the F36V mutation was built and tested. This vector, MFM (FIG. 4), has been used to derive a genetically stable, high titer ecotropic producer cell line using the methods described in Example 5.

[4] = test system: hematopoietic cell subsets in the spleen; assay: In vivo selection with MFM vector: flow cytometry of hematopoietic cell subsets in the spleen; parameters: species or system B6D2F1 mice; TER119 (erythroid) cells in the spleen / CD11b (myeloid) cells in the spleen / CD41 (megakaryocytic) cells in the spleen / CD3 (T-lymphoid) cells in the spleen / B220 (B-lymphoid) cells in the spleen: unit not given here
Protocol: (§1) Marrow cells from B6D2F1 mice were transduced as follows: fluorouracil, 150 mg/kg, was injected intraperitoneally into female B6D2F1 mice. Forty-eight hours later, marrow cells were harvested and cultured for 48 hours in DMEM containing 16% fetal calf serum, 5% IL-3 conditioned medium, 100 ng/ml recombinant IL-6, and 50 ng/ml recombinant murine stem cell factor in a 37° C., 5% CO2 incubator. After 48 hours of prestimulation, cells were transferred onto irradiated (1500 cGy) producer cells and cocultivated using identical growth conditions except for the addition of polybrene (8 μg per ml). The producer cells generate retroviral particles containing the MFM vector that are able to infect the bone marrow cells. Therefore, the MFM retrovirus is introduced into the bone marrow cells during the period of cocultivation. Marrow cells were harvested after 48 hours of cocultivation and 8×10^6 cells were injected into each of 10 lethally irradiated (1050 cGy) B6D2F1 mice. Immediately following transplantation, five mice received intraperitoneal injections of AP20187 daily at a dose of 2 mg/kg/day for forty consecutive days. Five control mice received daily injections of the drug diluent (see below) without AP20187.
(§2) AP20187 was prepared as follows: Drug was solubilized in ethanol, then PEG 400 was added. Finally, a mixture of water and Tween 80 was added to achieve final concentrations of ethanol of 4%, PEG400 10% and Tween 1.4%.
To characterize the types of cells expanding in response to AP20187, flow cytometry was performed using antibodies directed against myeloid (CD11b), erythroid (TER119), megakaryocytic (CD41), B-lymphoid (B-220) and T-lymphoid (CD3) cells.

[5] = molecular target: endogenous FKBP12 (Homo sapiens, UniProt P62942); assay: Binding to endogenous FKBP12
[6] = test system: spleen; assay: In vivo selection with MFM vector: spleen weight; parameters: species or system B6D2F1 mice; conditions: after 40 days
Protocol: as §1, §2
(§3) After 40 days of drug administration, splenectomies were performed; spleens were weighed and spleen cells were tested in clonogenic assays to determine the frequency of genetically modified progenitor cells.

[7] = test system: genetically modified progenitor cells in the femur; assay: In vivo selection with MFM vector: G418 resistant colonies in the femur (bone marrow aspirates); parameters: species or system B6D2F1 mice
Protocol: as §1, §2
The presence of the neo gene in the MFM vector allows the frequency of genetically modified progenitor cells to be determined by performing clonogenic assays either in the presence or absence of G418. After 32 days of drug administration, bone marrow aspirates were performed and the frequency of clonogenic progenitor cells was determined. Results are shown as follows:
Sufficient numbers of bone marrow cells were obtained on the aspirates of one control and one drug treated mouse (numbers 191 and 195, respectively) to permit Southern analysis.

[8] = test system: genetically modified progenitor cells in the spleen; assay: In vivo selection with MFM vector: G418 resistant colonies in the spleen; parameters: species or system B6D2F1 mice; conditions: after 40 days
Protocol: as §1, §2, §3

[9] = In vivo half life
[10] = group mean, spleen, flow cytometry
[11] = individual mice, flow cytometry, after 40 days
[12] = individual mice, 2 mg/kg/day i.p., 2 mg/kg/day

Sequence of endogenous FKBP12 (P62942 whole entry, species assumed): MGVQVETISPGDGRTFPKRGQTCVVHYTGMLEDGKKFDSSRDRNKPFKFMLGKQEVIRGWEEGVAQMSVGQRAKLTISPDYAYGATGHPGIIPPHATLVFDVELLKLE

## CC[C@H](C(=O)N1CCCC[C@H]1C(=O)O[C@H](CCc1ccc(OC)c(OC)c1)c1cccc(OCC(=O)NCC(CNC(=O)COc2cccc([C@@H](CCc3ccc(OC)c(OC)c3)OC(=O)[C@@H]3CCCCN3C(=O)[C@@H](CC)c3cc(OC)c(OC)c(OC)c3)c2)CN(C)C)c1)c1cc(OC)c(OC)c(OC)c1 [AP20187]
[1]
  immunosuppressive activity or other toxicity to cells: no immunosuppressive activity or other toxicity to cells
[2]
  effect on DNA proliferation (BrdU incorporation): clear effect on DNA proliferation in MH expressing chimeric receptors
[3]
  proliferative and differentiative responses: indistinguishable from those we have observed using FK1012
[4]; [10]
  B220, mean (standard deviation): 29.2 (5.1)
  CD3, mean (standard deviation): 12.2 (8.2)
  CD11b, mean (standard deviation): 10.2 (2.5)
  CD41, mean (standard deviation): 1.4 (1.1)
  TER119, mean (standard deviation): 27.7 (8.1)
[4]; [11]
  B220 (B-lymphoid) cells in the spleen: 31.6 and 24.5 and 23.0 and 33.2 and 33.8
  CD3 (T-lymphoid) cells in the spleen: 24.4 and 8.4 and 4.8 and 6.5 and 16.8
  CD11b (myeloid) cells in the spleen: 9.5 and 7.8 and 12.8 and 8.2 and 13.0
  CD41 (megakaryocytic) cells in the spleen: 0.7 and 0.5 and 1.1 and 3.3 and 1.4
  TER119 (erythroid) cells in the spleen: 21.0 and 28.2 and 40.8 and 27.4 and 21.1
[4]; versus control group
  change in hematopoietic cell subsets in the spleen: increase in myeloid (CD11b-positive) and erythroid (TER119-positive) cells in the spleen
[5]
  binding to endogenous FKBP12: does not bind to endogenous FKBP12
[6]; group mean (+/−)
  Spleen Weight, Mean: 208.9 (+/−43.5) mg
[6]; [12]
  Spleen Weight: 200 mg and 190 mg and 279 mg and 213 mg and 162 mg
[6]; versus control group
  spleen size: significant increase in spleen size
[7]; after 32 days, did not achieve statistical significance
  mean number of G418 resistant colony forming cells in the femur relative to control group: approximately 2 fold
[7]; group mean (+/−), 2 mg/kg/day i.p., after 32 days
  Percentage of G418 Resistant Colonies (femur), Mean: 20.9 (+/−13.3) %
[7]; individual mice, 2 mg/kg/day i.p., after 32 days of drug administration, 2 mg/kg/day
  Percentage of G418 Resistant Colonies (femur): 39.3% and 14.7% and 17.7% and 28.1% and 4.6%
[7]; one drug treated mouse (195) versus one control (191)
  proviral signal by Southern analysis of bone marrow aspirates: detectable only in the mouse that had received AP20187
[8]; group mean (+/−)
  G418 Resistant (spleen colonies), Mean: 9 (+/−8.7%)
[8]; [12]
  G418 Resistant (spleen colonies): 4.1% and 5.2% and 6.4% and 24.5% and 4.8%
[8]; versus control group
  percentage of genetically modified progenitor cells in the spleen: increased percentage of genetically modified progenitor cells in the spleen that did not achieve statistical significance
[9]
  in vivo half life: 9 h
